This passage reports Zone of inhibition results from ChEMBL document CHEMBL1146814, “Amidine derived 1,3-diazabuta-1,3-dienes as potential antibacterial and antifungal agents” (2004).

Calls of active or inactive are those of the source. No cut-off for these calls is given here.

Experiment [1] has as its system Staphylococcus aureus. Briefly: Antibacterial activity against Staphylococcus aureus MTCC 1430 measured through zone of inhibition; 21-25 mm. The class given is functional.
The test system of experiment [2] is Aspergillus niger. Briefly: Antifungal activity against Aspergillus niger MTCC 404 measured through zone of inhibition; inactive. The class given is functional, organism-based.
For experiment [3], the system named is Bacillus cereus. Briefly: Antibacterial activity against Bacillus cereus MTCC 1272 measured through zone of inhibition; 21-25 mm. Format: functional.
The test system of experiment [4] is Bacillus subtilis. The experiment can be described thus: Antibacterial activity against Bacillus subtilis MTCC 121 measured through zone of inhibition; 16-20 mm. Format: functional.
For experiment [5], the system named is Escherichia coli. The experiment can be described thus: Antibacterial activity against Escherichia coli MTCC 42 measured through zone of inhibition; 21-25 mm. Format: functional.
Experiment [6] relates to Pseudomonas aeruginosa. The experiment can be described thus: Antibacterial activity against Pseudomonas aeruginosa MTCC 1034. measured through zone of inhibition; 16-20 mm. Format: functional.
For experiment [7], the system named is Candida albicans. The experiment can be described thus: Antifungal activity against Candida albicans MTCC 183 measured through zone of inhibition; 11-15 mm. Format: functional.
Experiment [8] concerns Bacillus cereus. Briefly: Antibacterial activity against Bacillus cereus MTCC 1272 measured through zone of inhibition; 16-20 mm. The class given is functional.
Experiment [9] has as its system Bacillus subtilis. Briefly: Antibacterial activity against Bacillus subtilis MTCC 121 measured through zone of inhibition; 21-25 mm. Format: functional.
For experiment [10], the system named is Bacillus subtilis. Briefly: Antibacterial activity against Bacillus subtilis MTCC 121 measured through zone of inhibition; Inactive. Format: functional, organism-based.
Experiment [11] deals with Aspergillus niger. Briefly: Antifungal activity against Aspergillus niger MTCC 404 measured through zone of inhibition; Inactive. Format: functional, organism-based.
Experiment [12] deals with Bacillus cereus. The experiment can be described thus: Antibacterial activity against Bacillus cereus MTCC 1272 measured through zone of inhibition; Inactive. Format: functional, organism-based.
The subject of experiment [13] is Pseudomonas aeruginosa. Briefly: Antibacterial activity against Pseudomonas aeruginosa MTCC 1034. measured through zone of inhibition; Inactive. Format: functional, organism-based.
Experiment [14] deals with Escherichia coli. The experiment can be described thus: Antibacterial activity against Escherichia coli MTCC 42 measured through zone of inhibition; Inactive. The class given is functional, organism-based.
In experiment [15] the test system is Staphylococcus aureus. The experiment can be described thus: Antibacterial activity against Staphylococcus aureus MTCC 1430 measured through zone of inhibition; Inactive. The class given is functional, organism-based.
For experiment [16], the system named is Candida albicans. The experiment can be described thus: Antifungal activity against Candida albicans MTCC 183 measured through zone of inhibition; Inactive. Format: functional, organism-based.
The test system of experiment [17] is Staphylococcus aureus. Briefly: Antibacterial activity against Staphylococcus aureus MTCC 1430 measured through zone of inhibition; 16-20 mm. Format: functional.
In experiment [18] the test system is Candida albicans. The experiment can be described thus: Antifungal activity against Candida albicans MTCC 183 measured through zone of inhibition; inactive. The class given is functional, organism-based.
Experiment [19] concerns Candida albicans. The experiment can be described thus: Antifungal activity against Candida albicans MTCC 183 measured through zone of inhibition; 16-20 mm. Format: functional.
The test system of experiment [20] is Aspergillus niger. The experiment can be described thus: Antifungal activity against Aspergillus niger MTCC 404 measured through zone of inhibition; 11-15 mm. Format: functional.
The subject of experiment [21] is Pseudomonas aeruginosa. Briefly: Antibacterial activity against Pseudomonas aeruginosa MTCC 1034. measured through zone of inhibition; 21-25 mm. Format: functional.
For experiment [22], the system named is Bacillus cereus. Briefly: Antibacterial activity against Bacillus cereus MTCC 1272 measured through zone of inhibition; 11-15 mm. Format: functional.
Experiment [23] concerns Staphylococcus aureus. Briefly: Antibacterial activity against Staphylococcus aureus MTCC 1430 measured through zone of inhibition; 11-15 mm. Format: functional.

With `CCS/C(=N\C(=N\c1ccccc1)c1ccccc1)N1CCCCC1`, the Zone of inhibition in [1] stood at 21 mm; in experiment [3], 21 mm; in [4] it was 16 mm; in experiment [5], 21 mm; in experiment [6], 16 mm; in experiment [7] it was 11 mm. In experiment [2], the Zone of inhibition entry is “inactive”.
As for `O=C(O)c1cn(C2CC2)c2cc(N3CCNCC3)c(F)cc2c1=O` [CIPROFLOXACIN], the Zone of inhibition in [1] came out at 21 mm; in [8], 16 mm; in experiment [5], 21 mm; in [6], 16 mm; in [9], 21 mm.
For `C[S+](C)[O-]`, the Zone of inhibition entry in experiment [10], in experiment [11], in experiment [12], in experiment [13], in experiment [14] and in experiment [15] was “inactive” each time. The Zone of inhibition entry in experiment [16] was “inactive”.
In the case of `CS/C(=N\C(=N\c1ccccc1)c1ccccc1)N1CCCCC1`, the Zone of inhibition turned out to be 16 mm in experiment [17]; 16 mm in experiment [8]; 16 mm in experiment [4]; 25 mm in [5]; 16 mm in experiment [6]. Moreover, the Zone of inhibition result in experiment [18] and in experiment [2] was “inactive” throughout.
`CS/C(=N\C(=N\c1ccc(C)cc1)c1ccccc1)N1CCCCC1`: the Zone of inhibition entry in experiment [11] and in experiment [16] was “inactive” in each case. In addition, the Zone of inhibition was 21 mm in experiment [1]; 16 mm in experiment [8]; 16 mm in experiment [4]; 21 mm in experiment [5]; 16 mm in experiment [6].
Consider `CCCCS/C(=N\C(=N\c1ccc(C)cc1)c1ccccc1)N1CCCCC1`, for which the Zone of inhibition in experiment [19] was 16 mm; in experiment [1], 21 mm; in experiment [20], 11 mm; in experiment [8], 16 mm; in experiment [4], 16 mm; in [5] it was 21 mm. For the same compound, the Zone of inhibition in experiment [21] was 21 mm.
`CS/C(=N\C(=N\c1ccc(Cl)cc1)c1ccccc1)N1CCCCC1`: the Zone of inhibition worked out at 16 mm in experiment [17]; 11 mm in experiment [20]; 16 mm in experiment [4]; 11 mm in experiment [22]; 21 mm in experiment [5]; 11 mm in [7]. The compound also returned a Zone of inhibition in experiment [21] of 21 mm.
For the compound `CCS/C(=N\C(=N\c1ccc(C)cc1)c1ccccc1)N1CCCCC1`, the Zone of inhibition was found to be 11 mm in [23]; 11 mm in experiment [20]; 16 mm in experiment [8]; 21 mm in experiment [5]; 16 mm in experiment [6]; 21 mm in experiment [9]. The Zone of inhibition result in [16] was “inactive”.
